The results in this text go back to patent publication US20060281726A1, “Piperidine derivatives for the treatment of chemokine or h1 mediated disease state” (priority 2003, published 2006).

The structures appear in SMILES notation.

T1 sequence (P35367 whole entry): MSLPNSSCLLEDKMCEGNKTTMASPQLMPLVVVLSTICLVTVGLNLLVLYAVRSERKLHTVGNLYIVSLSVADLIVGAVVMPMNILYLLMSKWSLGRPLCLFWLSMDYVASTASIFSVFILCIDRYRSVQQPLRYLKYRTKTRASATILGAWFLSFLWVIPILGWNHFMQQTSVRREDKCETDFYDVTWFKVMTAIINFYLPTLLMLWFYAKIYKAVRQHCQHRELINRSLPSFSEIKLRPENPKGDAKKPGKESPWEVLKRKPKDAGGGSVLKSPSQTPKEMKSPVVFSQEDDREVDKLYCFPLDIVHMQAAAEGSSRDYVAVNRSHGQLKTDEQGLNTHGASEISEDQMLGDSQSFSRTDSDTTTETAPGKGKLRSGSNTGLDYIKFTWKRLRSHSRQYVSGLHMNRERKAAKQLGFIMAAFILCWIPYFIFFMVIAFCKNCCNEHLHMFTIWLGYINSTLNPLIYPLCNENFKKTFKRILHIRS

This test concerns the target T1, human H1 receptor (Homo sapiens, UniProt P35367).
T1 construct: purchased Euroscreen SA, Brussels, Belgium ES-390-M; host or cells: CHO-K1
As to the kind of experiment: Histamine H1 receptor binding, competition displacement of [3H]-pyrilamine. The conditions noted are these: displacement of 1 nM [3H]-pyrilamine; membranes from recombinant CHO-K1 cells expressing the human H1 receptor; 1 hour at room temperature; read-out: H1 pKi/[1328_S] (converted). Here is the method: Histamine H1 receptor binding activity of compounds of the invention was assessed by competition displacement of 1 nM [3H]-pyrilamine (Amersham, Bucks, Product code TRK 608, specific activity 30 Ci/mmol) to 2 μg membranes prepared from recombinant CHO-K1 cells expressing the human H1 receptor (Euroscreen SA, Brussels, Belgium, product code ES-390-M) in assay buffer (50 mM Tris pH 7.4 containing 2 mM MgCl2, 250 mM sucrose and 100 mM NaCl) for 1 hour at room temperature.
For orientation: Loss of bound radioactivity is the signal in a displacement assay; it reports binding, not function.
For `O=C(O)c1ccccc1C(=O)N1CCC(CN2CCC(Oc3ccc(Cl)c(Cl)c3)CC2)CC1` [Example 1, 2-[[4-[[4-(3,4-dichlorophenoxy)-1-piperidinyl]methyl]-1-piperidinyl]carbonyl]-benzoic acid], the Ki is 316 nM.
As for `Cc1c(Cl)ccc(OC2CCN(CC3CCN(C(=O)c4ccccc4C(=O)O)CC3)CC2)c1Cl` [Example 2, 2-[[4-[[4-(2,4-Dichloro-3-methylphenoxy)-1-piperidinyl]methyl]-1-piperidinyl]carbonyl]-benzoic acid], the Ki is 63.1 nM.
Turning to `Cc1c(OC2CCN(CC3CCN(C(=O)c4ccccc4C(=O)O)CC3)CC2)ccc(Cl)c1Cl` [Example 3, 2-[[4-[[4-(3,4-Dichloro-2-methylphenoxy)-1-piperidinyl]methyl]-1-piperidinyl]carbonyl]-benzoic acid], the Ki is 200 nM.
The value for `O=C(O)Cc1ccccc1C(=O)N1CCC(CN2CCC(Oc3ccc(Cl)c(Cl)c3)CC2)CC1` [Example 12, 2-[[4-[[4-(3,4-dichlorophenoxy)-1-piperidinyl]methyl]-1-piperidinyl]carbonyl]-benzeneacetic acid] was 251 nM; that for `CS(=O)(=O)c1cc(C(=O)N2CCC(CN3CCC(Oc4ccc(Cl)c(Cl)c4)CC3)CC2)ccc1O` [Example 19, 4-[[4-(3,4-dichlorophenoxy)-1-piperidinyl]methyl]-1-[4-hydroxy-3-(methylsulfonyl)benzoyl]-piperidine] was 31.6 nM.
